From PMC7827406, “Structure–Activity Relationship (SAR) Study of Spautin-1 to Entail the Discovery of Novel NEK4 Inhibitors” (International Journal of Molecular Sciences, 2021)
Like-named read-outs stand apart in the source and are kept apart here.

Key:
Assay in all cases: biochemical
Set-up in all cases: Eurofins KinaseProfiler full panel at Km ATP, residual kinase activity (%) relative to DMSO
Rsk1(r) = target: T1, Rsk1(r) (Rattus norvegicus, UniProt Q63531)
T1 construct: gene Rps6ka1
Description: (§1) Eurofins performed a “Full KP Panel [Km ATP], KinaseProfile” which contains 429 radiometric kinase activity assays. The remaining kinase activity (%) was determined after treatment with the compounds at a concentration of 10 µM (Cfr. supporting information). Since we could not confirm the interaction between Spautin-1 analogues and USP13, a kinase screening was performed using a set of four compounds (Spautin-1 and three analogues) to discover off-targets and identify kinases that are potentially responsible for the reduction in cell viability observed in our screen (Table 2). The KINOMEscan from Eurofins was performed (see Table S1). This screen consists of a competitive binding assay in which the DNA-tagged kinase is incubated with one of the compounds in the presence of immobilized active site binding ligands. Binding of the compounds to the kinase hampers the binding of the kinase to the ligands and this inhibition was quantified by qPCR. The residual kinase activity, which represents the percentage of kinase attached to the immobilized ligands, was determined for 428 kinases at a standard screening concentration of 10 µM of the compounds dissolved in DMSO [61].

DDR2(h) = target: T2, DDR2(h) (Homo sapiens, UniProt Q16832)
T2 sequence (Q16832 1-855): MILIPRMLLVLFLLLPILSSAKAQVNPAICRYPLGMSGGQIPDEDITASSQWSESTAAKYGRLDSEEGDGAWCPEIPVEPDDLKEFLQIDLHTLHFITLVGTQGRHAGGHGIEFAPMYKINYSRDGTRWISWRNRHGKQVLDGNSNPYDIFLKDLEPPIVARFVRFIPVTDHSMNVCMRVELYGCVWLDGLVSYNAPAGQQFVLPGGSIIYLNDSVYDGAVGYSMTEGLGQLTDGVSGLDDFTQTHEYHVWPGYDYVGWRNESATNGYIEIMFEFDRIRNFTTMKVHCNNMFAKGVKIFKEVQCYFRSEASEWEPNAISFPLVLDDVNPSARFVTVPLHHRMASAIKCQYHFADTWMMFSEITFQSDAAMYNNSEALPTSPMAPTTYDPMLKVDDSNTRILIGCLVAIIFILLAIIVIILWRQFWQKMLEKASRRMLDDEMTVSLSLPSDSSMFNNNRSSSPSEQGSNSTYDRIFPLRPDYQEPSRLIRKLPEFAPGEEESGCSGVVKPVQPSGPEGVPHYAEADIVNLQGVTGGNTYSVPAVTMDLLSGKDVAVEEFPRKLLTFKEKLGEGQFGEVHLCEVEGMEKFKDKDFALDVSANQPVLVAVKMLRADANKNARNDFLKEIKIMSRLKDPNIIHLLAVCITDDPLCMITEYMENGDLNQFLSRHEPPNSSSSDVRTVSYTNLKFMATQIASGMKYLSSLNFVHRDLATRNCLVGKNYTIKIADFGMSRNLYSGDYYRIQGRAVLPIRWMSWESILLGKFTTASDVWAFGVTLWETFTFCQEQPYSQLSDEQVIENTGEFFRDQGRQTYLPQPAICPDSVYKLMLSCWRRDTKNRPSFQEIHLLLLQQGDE
Description: as §1

CDK12/cyclinK(h) = CDK12/cyclinK(h) (Homo sapiens, UniProt Q9NYV4)
Description: as §1

CK1γ1(h) = target: T3, CK1γ1(h) (Homo sapiens, UniProt Q9HCP0)
T3 construct: gene CSNK1G1
Description: as §1

IR(h) = target: T4, IR(h) (Homo sapiens, UniProt P06213)
T4 construct: gene INSR
Description: as §1

PKCζ(h) = target: T5, PKCζ(h) (Homo sapiens, UniProt Q05513)
T5 construct: gene PRKCZ
T5 sequence (Q05513 1-592): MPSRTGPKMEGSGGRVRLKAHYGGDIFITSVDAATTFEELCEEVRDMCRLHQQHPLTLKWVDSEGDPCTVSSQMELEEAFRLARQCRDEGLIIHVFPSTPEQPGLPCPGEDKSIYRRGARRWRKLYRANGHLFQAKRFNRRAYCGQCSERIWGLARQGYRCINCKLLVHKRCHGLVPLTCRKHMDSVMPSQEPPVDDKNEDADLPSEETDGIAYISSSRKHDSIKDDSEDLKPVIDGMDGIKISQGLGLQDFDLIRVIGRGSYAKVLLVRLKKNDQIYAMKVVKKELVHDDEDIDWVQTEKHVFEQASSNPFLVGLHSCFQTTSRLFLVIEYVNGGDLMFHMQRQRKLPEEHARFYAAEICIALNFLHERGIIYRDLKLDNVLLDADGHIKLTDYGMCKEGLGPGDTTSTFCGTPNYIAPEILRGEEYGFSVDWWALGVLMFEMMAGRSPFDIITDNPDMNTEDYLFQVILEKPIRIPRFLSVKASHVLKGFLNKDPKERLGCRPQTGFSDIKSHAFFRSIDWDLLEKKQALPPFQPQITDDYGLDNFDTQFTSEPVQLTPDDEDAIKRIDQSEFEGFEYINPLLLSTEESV
Description: as §1

NEK6(h) = NEK6(h) (Homo sapiens, UniProt Q9HC98)
Description: as §1

HIPK3(h) = HIPK3(h) (Homo sapiens, UniProt Q9H422)
Description: as §1

FGFR2(h) = FGFR2(h) (Homo sapiens, UniProt P21802)
Description: as §1

PAK4(h) = PAK4(h) (Homo sapiens, UniProt O96013)
Description: as §1

[1] = read-out: Residual activity (%) Spautin-1 5aa
[2] = read-out: Residual activity (%) 5as
[3] = read-out: Residual activity (%) 5at
[4] = read-out: Residual activity (%) 5ay

Sequence of CDK12/cyclinK(h) (Q9NYV4 whole entry): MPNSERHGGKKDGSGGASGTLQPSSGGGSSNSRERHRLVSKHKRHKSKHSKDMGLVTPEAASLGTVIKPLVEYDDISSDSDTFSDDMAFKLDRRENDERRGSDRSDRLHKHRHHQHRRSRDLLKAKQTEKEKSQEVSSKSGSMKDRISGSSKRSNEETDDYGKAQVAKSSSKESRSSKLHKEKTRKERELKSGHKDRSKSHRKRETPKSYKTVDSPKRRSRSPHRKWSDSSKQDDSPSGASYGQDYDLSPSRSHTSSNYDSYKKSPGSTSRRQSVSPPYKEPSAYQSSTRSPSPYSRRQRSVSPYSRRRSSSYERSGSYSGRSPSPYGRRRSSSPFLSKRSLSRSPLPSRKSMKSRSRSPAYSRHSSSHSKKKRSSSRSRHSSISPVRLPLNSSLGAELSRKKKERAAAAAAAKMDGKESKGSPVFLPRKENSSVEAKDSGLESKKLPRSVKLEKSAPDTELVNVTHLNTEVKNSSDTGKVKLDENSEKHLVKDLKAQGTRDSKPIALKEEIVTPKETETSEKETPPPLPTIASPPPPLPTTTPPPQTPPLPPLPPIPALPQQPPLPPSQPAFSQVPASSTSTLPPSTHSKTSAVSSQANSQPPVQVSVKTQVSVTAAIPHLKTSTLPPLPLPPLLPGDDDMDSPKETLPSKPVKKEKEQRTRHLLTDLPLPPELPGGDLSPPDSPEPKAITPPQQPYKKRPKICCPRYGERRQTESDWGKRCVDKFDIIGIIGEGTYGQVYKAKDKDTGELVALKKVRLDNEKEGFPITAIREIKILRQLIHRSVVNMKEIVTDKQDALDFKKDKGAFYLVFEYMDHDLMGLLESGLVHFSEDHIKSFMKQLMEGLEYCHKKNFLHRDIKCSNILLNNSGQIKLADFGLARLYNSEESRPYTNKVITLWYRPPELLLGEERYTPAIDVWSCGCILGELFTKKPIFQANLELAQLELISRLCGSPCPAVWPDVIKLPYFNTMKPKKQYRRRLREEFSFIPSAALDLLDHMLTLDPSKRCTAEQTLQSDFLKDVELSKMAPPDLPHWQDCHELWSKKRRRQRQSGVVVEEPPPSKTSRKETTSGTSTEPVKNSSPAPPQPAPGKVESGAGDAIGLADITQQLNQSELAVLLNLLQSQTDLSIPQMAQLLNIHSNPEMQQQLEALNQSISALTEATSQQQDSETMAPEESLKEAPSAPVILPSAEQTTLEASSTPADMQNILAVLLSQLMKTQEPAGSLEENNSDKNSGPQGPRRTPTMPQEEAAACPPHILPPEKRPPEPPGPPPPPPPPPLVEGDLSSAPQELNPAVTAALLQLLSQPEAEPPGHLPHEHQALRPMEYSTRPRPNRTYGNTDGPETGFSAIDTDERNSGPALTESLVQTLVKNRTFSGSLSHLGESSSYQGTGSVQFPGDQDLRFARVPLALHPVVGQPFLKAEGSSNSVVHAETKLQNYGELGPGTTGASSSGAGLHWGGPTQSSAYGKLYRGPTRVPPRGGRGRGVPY
Sequence of CDK12/cyclinK(h) (O75909 whole entry partner): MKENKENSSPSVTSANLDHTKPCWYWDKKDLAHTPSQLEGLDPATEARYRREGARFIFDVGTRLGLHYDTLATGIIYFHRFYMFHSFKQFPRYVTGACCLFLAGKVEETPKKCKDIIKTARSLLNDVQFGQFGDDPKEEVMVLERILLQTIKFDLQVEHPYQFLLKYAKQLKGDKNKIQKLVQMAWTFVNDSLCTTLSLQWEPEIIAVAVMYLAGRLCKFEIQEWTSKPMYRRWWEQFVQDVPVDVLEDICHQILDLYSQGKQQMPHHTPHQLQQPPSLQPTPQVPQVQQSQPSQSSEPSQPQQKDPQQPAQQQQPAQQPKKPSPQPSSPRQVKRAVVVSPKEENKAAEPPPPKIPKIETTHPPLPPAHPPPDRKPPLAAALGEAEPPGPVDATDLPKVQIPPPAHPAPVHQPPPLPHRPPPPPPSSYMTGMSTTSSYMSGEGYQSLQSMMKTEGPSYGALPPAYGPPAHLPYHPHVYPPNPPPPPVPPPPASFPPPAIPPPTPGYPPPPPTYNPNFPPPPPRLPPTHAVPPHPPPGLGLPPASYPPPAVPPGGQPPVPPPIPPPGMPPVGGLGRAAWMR
T1 sequence (Q63531 whole entry): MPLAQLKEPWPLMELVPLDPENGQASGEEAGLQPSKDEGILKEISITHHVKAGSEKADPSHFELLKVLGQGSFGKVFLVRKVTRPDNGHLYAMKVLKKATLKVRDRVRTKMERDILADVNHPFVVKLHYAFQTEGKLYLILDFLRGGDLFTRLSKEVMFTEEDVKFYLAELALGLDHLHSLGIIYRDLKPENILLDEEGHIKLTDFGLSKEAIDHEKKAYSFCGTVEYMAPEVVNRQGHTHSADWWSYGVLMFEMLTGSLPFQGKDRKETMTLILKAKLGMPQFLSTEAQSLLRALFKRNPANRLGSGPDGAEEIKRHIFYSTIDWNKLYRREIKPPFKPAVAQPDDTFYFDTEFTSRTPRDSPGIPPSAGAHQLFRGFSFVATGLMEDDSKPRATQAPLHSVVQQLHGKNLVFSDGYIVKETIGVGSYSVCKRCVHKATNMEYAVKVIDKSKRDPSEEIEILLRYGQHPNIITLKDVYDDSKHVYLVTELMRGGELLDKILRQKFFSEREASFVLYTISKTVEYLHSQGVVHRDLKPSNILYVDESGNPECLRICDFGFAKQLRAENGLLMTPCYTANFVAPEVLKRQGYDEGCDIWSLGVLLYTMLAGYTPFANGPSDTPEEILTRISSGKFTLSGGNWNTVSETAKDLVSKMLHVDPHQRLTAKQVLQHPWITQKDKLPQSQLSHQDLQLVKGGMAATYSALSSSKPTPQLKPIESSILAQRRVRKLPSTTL
T3 sequence (Q9HCP0 whole entry): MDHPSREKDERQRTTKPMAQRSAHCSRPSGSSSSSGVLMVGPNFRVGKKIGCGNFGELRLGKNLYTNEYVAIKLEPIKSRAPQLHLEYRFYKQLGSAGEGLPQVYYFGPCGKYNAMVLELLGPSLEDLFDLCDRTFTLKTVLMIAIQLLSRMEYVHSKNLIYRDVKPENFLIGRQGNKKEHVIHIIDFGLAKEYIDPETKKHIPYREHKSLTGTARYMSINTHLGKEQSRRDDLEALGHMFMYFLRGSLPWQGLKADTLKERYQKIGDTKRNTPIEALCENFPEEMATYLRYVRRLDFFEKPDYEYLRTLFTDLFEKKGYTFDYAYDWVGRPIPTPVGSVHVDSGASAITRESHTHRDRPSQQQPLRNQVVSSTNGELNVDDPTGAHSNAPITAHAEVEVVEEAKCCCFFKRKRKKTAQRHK
T4 sequence (P06213 whole entry): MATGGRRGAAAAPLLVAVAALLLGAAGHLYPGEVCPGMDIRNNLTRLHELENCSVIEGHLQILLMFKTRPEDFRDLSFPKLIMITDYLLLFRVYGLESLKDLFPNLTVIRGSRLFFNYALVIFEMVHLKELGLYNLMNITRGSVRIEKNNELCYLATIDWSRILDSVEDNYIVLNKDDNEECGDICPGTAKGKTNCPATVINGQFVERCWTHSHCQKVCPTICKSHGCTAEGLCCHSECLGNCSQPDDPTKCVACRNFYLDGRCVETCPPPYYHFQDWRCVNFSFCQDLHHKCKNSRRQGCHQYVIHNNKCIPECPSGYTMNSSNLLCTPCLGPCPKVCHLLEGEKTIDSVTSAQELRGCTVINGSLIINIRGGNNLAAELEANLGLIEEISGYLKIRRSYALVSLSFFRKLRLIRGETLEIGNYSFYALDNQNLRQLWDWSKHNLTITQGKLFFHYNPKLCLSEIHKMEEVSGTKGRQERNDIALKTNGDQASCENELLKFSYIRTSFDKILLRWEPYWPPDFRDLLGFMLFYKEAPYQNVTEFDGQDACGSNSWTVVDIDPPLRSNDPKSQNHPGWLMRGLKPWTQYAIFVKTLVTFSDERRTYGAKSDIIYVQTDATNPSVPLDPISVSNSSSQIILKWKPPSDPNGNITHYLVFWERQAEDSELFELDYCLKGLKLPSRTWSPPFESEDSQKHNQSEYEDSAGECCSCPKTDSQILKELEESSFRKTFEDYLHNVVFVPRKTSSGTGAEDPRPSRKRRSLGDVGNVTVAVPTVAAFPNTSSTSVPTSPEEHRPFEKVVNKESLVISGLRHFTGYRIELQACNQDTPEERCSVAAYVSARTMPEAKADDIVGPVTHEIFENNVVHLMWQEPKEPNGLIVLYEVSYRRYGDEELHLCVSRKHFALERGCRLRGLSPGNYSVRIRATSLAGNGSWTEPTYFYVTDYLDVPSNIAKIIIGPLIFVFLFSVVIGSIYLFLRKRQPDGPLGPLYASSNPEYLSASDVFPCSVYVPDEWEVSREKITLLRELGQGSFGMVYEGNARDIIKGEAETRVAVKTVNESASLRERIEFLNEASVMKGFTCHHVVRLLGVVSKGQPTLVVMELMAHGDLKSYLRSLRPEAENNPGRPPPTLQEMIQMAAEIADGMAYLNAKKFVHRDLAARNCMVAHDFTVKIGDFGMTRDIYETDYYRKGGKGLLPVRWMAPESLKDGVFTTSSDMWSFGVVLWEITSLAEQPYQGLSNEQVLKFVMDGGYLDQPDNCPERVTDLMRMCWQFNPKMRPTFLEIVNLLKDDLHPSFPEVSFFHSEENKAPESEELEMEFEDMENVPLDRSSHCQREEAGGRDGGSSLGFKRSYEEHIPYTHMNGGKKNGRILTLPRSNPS
Sequence of NEK6(h) (Q9HC98 whole entry): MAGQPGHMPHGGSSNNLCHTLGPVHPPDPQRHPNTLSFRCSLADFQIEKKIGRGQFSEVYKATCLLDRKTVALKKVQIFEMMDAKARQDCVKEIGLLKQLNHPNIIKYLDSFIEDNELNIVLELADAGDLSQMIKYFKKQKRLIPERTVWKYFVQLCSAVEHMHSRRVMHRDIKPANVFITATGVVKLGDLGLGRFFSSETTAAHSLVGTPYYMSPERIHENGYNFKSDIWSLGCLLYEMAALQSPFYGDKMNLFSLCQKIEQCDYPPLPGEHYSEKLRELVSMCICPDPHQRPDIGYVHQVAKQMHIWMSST

SMILES: Fc1ccc(CNc2ncnc3ccc(F)cc23)cc1 [5aa, 6-Fluoro-N-(4-fluorobenzyl)-4-Quinazolinamine]
- remaining activity at 10 µM (Rsk1(r); [1]): 117%
- remaining activity at 10 µM (DDR2(h); [1]): 87%
- remaining activity at 10 µM (CDK12/cyclinK(h); [1]): 84%
- remaining activity at 10 µM (CK1γ1(h); [1]): 99%
- remaining activity at 10 µM (IR(h); [1]): 73%
- remaining activity at 10 µM (PKCζ(h); [1]): 85%
- remaining activity at 10 µM (NEK6(h); [1]): 103%
- remaining activity at 10 µM (HIPK3(h); [1]): 93%
- remaining activity at 10 µM (FGFR2(h); [1]): 91%
- remaining activity at 10 µM (PAK4(h); [1]): 90%

SMILES: Fc1ccc(CCNc2ncnc3ccc(F)cc23)cc1 [5as, 6-Fluoro-N-[2-(4-Fluorophenyl)Ethyl]-4-Quinazolinamine]
- remaining activity at 10 µM (Rsk1(r); [2]): 130%
- remaining activity at 10 µM (DDR2(h); [2]): 80%
- remaining activity at 10 µM (CDK12/cyclinK(h); [2]): 72%
- remaining activity at 10 µM (CK1γ1(h); [2]): 80%
- remaining activity at 10 µM (IR(h); [2]): 88%
- remaining activity at 10 µM (PKCζ(h); [2]): 75%
- remaining activity at 10 µM (NEK6(h); [2]): 94%
- remaining activity at 10 µM (HIPK3(h); [2]): 98%
- remaining activity at 10 µM (FGFR2(h); [2]): 99%
- remaining activity at 10 µM (PAK4(h); [2]): 92%

SMILES: Fc1ccc2ncnc(NCCc3ccc(Cl)cc3)c2c1 [5at, N-[2-(4-Chlorophenyl)Ethyl]-6-Fluoro-4-Quinazolinamine]
- remaining activity at 10 µM (Rsk1(r); [3]): 113%
- remaining activity at 10 µM (DDR2(h); [3]): 82%
- remaining activity at 10 µM (CDK12/cyclinK(h); [3]): 93%
- remaining activity at 10 µM (CK1γ1(h); [3]): 80%
- remaining activity at 10 µM (IR(h); [3]): 70%
- remaining activity at 10 µM (PKCζ(h); [3]): 71%
- remaining activity at 10 µM (NEK6(h); [3]): 79%
- remaining activity at 10 µM (HIPK3(h); [3]): 95%
- remaining activity at 10 µM (FGFR2(h); [3]): 84%
- remaining activity at 10 µM (PAK4(h); [3]): 90%

SMILES: COc1ccc2ncnc(Nc3cccc(F)c3)c2c1 [5ay, N-(3-Fluorophenyl)-6-Methoxy-4-Quinazolinamine]
- remaining activity at 10 µM (Rsk1(r); [4]): 129%
- remaining activity at 10 µM (DDR2(h); [4]): 84%
- remaining activity at 10 µM (CDK12/cyclinK(h); [4]): 69%
- remaining activity at 10 µM (CK1γ1(h); [4]): 94%
- remaining activity at 10 µM (IR(h); [4]): 98%
- remaining activity at 10 µM (PKCζ(h); [4]): 91%
- remaining activity at 10 µM (NEK6(h); [4]): 91%
- remaining activity at 10 µM (HIPK3(h); [4]): 84%
- remaining activity at 10 µM (FGFR2(h); [4]): 96%
- remaining activity at 10 µM (PAK4(h); [4]): 83%
